Reference: PubChem BioAssay AID1963423 (Molecular Pharmacology Branch, DTP, NCI, 2024)

Test system: 439559-082-T-J2-PDC complex spheroid growth
Experiment: Anticancer human tumor 439559-082-T-J2-PDC patient-derived colon adenocarcinoma cell line growth inhibition [Asc]
Conditions: for IC50: curve of first compound; for viability, T/C: stronger effect = lower value
In short: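 Complex solid-tumor spheroids incorporating human endothelial and mesenchymal stem cells received single agents or combinations over half-log dilution ranges anchored to clinical Cmax.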

[1] = second compound 0.00316 µM, first compound 0.0316 µM
[2] = second compound 0.00316 µM, first compound 0.1 µM
[3] = second compound 0.00316 µM, first compound 0.316 µM
[4] = second compound 0.00316 µM, first compound 1 µM
[5] = second compound 0.00316 µM, first compound 3.16 µM
[6] = second compound 0.00316 µM, first compound 10 µM
[7] = second compound 0.01 µM, first compound 0.0316 µM
[8] = second compound 0.01 µM, first compound 0.1 µM
[9] = second compound 0.01 µM, first compound 0.316 µM
[10] = second compound 0.01 µM, first compound 1 µM
[11] = second compound 0.01 µM, first compound 3.16 µM
[12] = second compound 0.01 µM, first compound 10 µM
[13] = second compound 0.0316 µM, first compound 0.0316 µM
[14] = second compound 0.0316 µM, first compound 0.1 µM
[15] = second compound 0.0316 µM, first compound 0.316 µM
[16] = second compound 0.0316 µM, first compound 1 µM
[17] = second compound 0.0316 µM, first compound 3.16 µM
[18] = second compound 0.0316 µM, first compound 10 µM
[19] = second compound 0.1 µM, first compound 0.0316 µM
[20] = second compound 0.1 µM, first compound 0.1 µM
[21] = second compound 0.1 µM, first compound 0.316 µM
[22] = second compound 0.1 µM, first compound 1 µM
[23] = second compound 0.1 µM, first compound 3.16 µM
[24] = second compound 0.1 µM, first compound 10 µM
[25] = second compound 0.316 µM, first compound 0.0316 µM
[26] = second compound 0.316 µM, first compound 0.1 µM
[27] = second compound 0.316 µM, first compound 0.316 µM
[28] = second compound 0.316 µM, first compound 1 µM
[29] = second compound 0.316 µM, first compound 3.16 µM
[30] = second compound 0.316 µM, first compound 10 µM
[31] = second compound 1 µM, first compound 0.0316 µM
[32] = second compound 1 µM, first compound 0.1 µM
[33] = second compound 1 µM, first compound 0.316 µM
[34] = second compound 1 µM, first compound 1 µM
[35] = second compound 1 µM, first compound 3.16 µM
[36] = second compound 1 µM, first compound 10 µM
[37] = second compound 0.00316 µM, first compound 0.00949 µM
[38] = second compound 0.00316 µM, first compound 0.03 µM
[39] = second compound 0.00316 µM, first compound 0.0949 µM
[40] = second compound 0.00316 µM, first compound 0.3 µM
[41] = second compound 0.00316 µM, first compound 0.949 µM
[42] = second compound 0.00316 µM, first compound 3 µM
[43] = second compound 0.01 µM, first compound 0.00949 µM
[44] = second compound 0.01 µM, first compound 0.03 µM
[45] = second compound 0.01 µM, first compound 0.0949 µM
[46] = second compound 0.01 µM, first compound 0.3 µM
[47] = second compound 0.01 µM, first compound 0.949 µM
[48] = second compound 0.01 µM, first compound 3 µM
[49] = second compound 0.0316 µM, first compound 0.00949 µM
[50] = second compound 0.0316 µM, first compound 0.03 µM
[51] = second compound 0.0316 µM, first compound 0.0949 µM
[52] = second compound 0.0316 µM, first compound 0.3 µM
[53] = second compound 0.0316 µM, first compound 0.949 µM
[54] = second compound 0.0316 µM, first compound 3 µM
[55] = second compound 0.1 µM, first compound 0.00949 µM
[56] = second compound 0.1 µM, first compound 0.03 µM
[57] = second compound 0.1 µM, first compound 0.0949 µM
[58] = second compound 0.1 µM, first compound 0.3 µM
[59] = second compound 0.1 µM, first compound 0.949 µM
[60] = second compound 0.1 µM, first compound 3 µM
[61] = second compound 0.316 µM, first compound 0.00949 µM
[62] = second compound 0.316 µM, first compound 0.03 µM
[63] = second compound 0.316 µM, first compound 0.0949 µM
[64] = second compound 0.316 µM, first compound 0.3 µM
[65] = second compound 0.316 µM, first compound 0.949 µM
[66] = second compound 0.316 µM, first compound 3 µM
[67] = second compound 1 µM, first compound 0.00949 µM
[68] = second compound 1 µM, first compound 0.03 µM
[69] = second compound 1 µM, first compound 0.0949 µM
[70] = second compound 1 µM, first compound 0.3 µM
[71] = second compound 1 µM, first compound 0.949 µM
[72] = second compound 1 µM, first compound 3 µM
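Note: spheroids exposed to agents for 7 days starting day 3 after seeding.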
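Throughout, for viability, T/C: percent of DMSO vehicle control viability with 100% = vehicle.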

C#Cc1c(F)ccc2cc(O)cc(-c3ncc4c(N5CC6CCC(C5)N6)nc(OCC56CCCN5CC(F)C6)nc4c3F)c12 (stereo not drawn) + CNC(C)C(=O)NC1CN(S(=O)(=O)c2cccc(S(=O)(=O)N3CCC4CCC(C(=O)NC(c5ccccc5)c5ccccc5)N4C(=O)C(NC(=O)C(C)NC)C3)c2)CCC2CCC(C(=O)NC(c3ccccc3)c3ccccc3)N2C1=O
IC50 (second compound 0.00316 µM): 2 µM | IC50 (second compound 0.01 µM): 2.62 µM | IC50 (second compound 0.0316 µM): 1.66 µM | IC50 (second compound 0.1 µM): 1.91 µM | IC50 (second compound 0.316 µM): 1.03 µM | IC50 (second compound 1 µM): 0.269 µM | viability, T/C [1]: 103% | viability, T/C [2]: 76.9% | viability, T/C [3]: 66.3% | viability, T/C [4]: 58.9% | viability, T/C [5]: 46.9% | viability, T/C [6]: 38.9% | viability, T/C [7]: 104% | viability, T/C [8]: 82% | viability, T/C [9]: 66.1% | viability, T/C [10]: 62.9% | viability, T/C [11]: 48.5% | viability, T/C [12]: 39.8% | viability, T/C [13]: 95% | viability, T/C [14]: 94.3% | viability, T/C [15]: 66.8% | viability, T/C [16]: 54.9% | viability, T/C [17]: 50% | viability, T/C [18]: 37.5% | viability, T/C [19]: 91.8% | viability, T/C [20]: 73.8% | viability, T/C [21]: 65.8% | viability, T/C [22]: 60.1% | viability, T/C [23]: 45.3% | viability, T/C [24]: 34.3% | viability, T/C [25]: 84.7% | viability, T/C [26]: 78.5% | viability, T/C [27]: 59.4% | viability, T/C [28]: 51.4% | viability, T/C [29]: 40% | viability, T/C [30]: 30.1% | viability, T/C [31]: 66% | viability, T/C [32]: 55.2% | viability, T/C [33]: 50.7% | viability, T/C [34]: 40% | viability, T/C [35]: 29% | viability, T/C [36]: 21.6%

C=C(F)C(=O)N1CCN(c2nc(OCC3CCCN3C)nc3c2CCN(c2cccc4cccc(Cl)c24)C3)CC1CC#N (stereo not drawn) + CNC(C)C(=O)NC1CN(S(=O)(=O)c2cccc(S(=O)(=O)N3CCC4CCC(C(=O)NC(c5ccccc5)c5ccccc5)N4C(=O)C(NC(=O)C(C)NC)C3)c2)CCC2CCC(C(=O)NC(c3ccccc3)c3ccccc3)N2C1=O
IC50 (second compound 0.00316 µM): 5.51 µM | IC50 (second compound 0.01 µM): 4.85 µM | IC50 (second compound 0.0316 µM): 4.25 µM | IC50 (second compound 0.1 µM): 4.11 µM | IC50 (second compound 0.316 µM): 3.52 µM | IC50 (second compound 1 µM): 2.56 µM | viability, T/C [1]: 101% | viability, T/C [2]: 104% | viability, T/C [3]: 103% | viability, T/C [4]: 85.6% | viability, T/C [5]: 94.4% | viability, T/C [6]: 2.3% | viability, T/C [7]: 98.8% | viability, T/C [8]: 100% | viability, T/C [9]: 94.9% | viability, T/C [10]: 101% | viability, T/C [11]: 77.3% | viability, T/C [12]: 3.86% | viability, T/C [13]: 102% | viability, T/C [14]: 102% | viability, T/C [15]: 104% | viability, T/C [16]: 104% | viability, T/C [17]: 67.2% | viability, T/C [18]: 0.24% | viability, T/C [19]: 96.1% | viability, T/C [20]: 101% | viability, T/C [21]: 92.2% | viability, T/C [22]: 87.2% | viability, T/C [23]: 64.3% | viability, T/C [24]: 3.14% | viability, T/C [25]: 95.4% | viability, T/C [26]: 90.3% | viability, T/C [27]: 83.4% | viability, T/C [28]: 79% | viability, T/C [29]: 56.3% | viability, T/C [30]: 0.25% | viability, T/C [31]: 84.5% | viability, T/C [32]: 75.3% | viability, T/C [33]: 82.5% | viability, T/C [34]: 66.4% | viability, T/C [35]: 46.3% | viability, T/C [36]: 0.27%

CCN1C(C(=O)NC23CCC(C(=O)O)(CC2)CC3)C(c2cccc(Cl)c2F)C2(C(=O)Nc3cc(Cl)ccc32)C12CCCCC2 (stereo not drawn) + CNC(C)C(=O)NC1CN(S(=O)(=O)c2cccc(S(=O)(=O)N3CCC4CCC(C(=O)NC(c5ccccc5)c5ccccc5)N4C(=O)C(NC(=O)C(C)NC)C3)c2)CCC2CCC(C(=O)NC(c3ccccc3)c3ccccc3)N2C1=O
IC50 (second compound 0.00316 µM): > 3 µM | IC50 (second compound 0.01 µM): > 3 µM | IC50 (second compound 0.0316 µM): > 3 µM | IC50 (second compound 0.1 µM): > 3 µM | IC50 (second compound 0.316 µM): > 3 µM | IC50 (second compound 1 µM): > 3 µM | viability, T/C [37]: 116% | viability, T/C [38]: 92.9% | viability, T/C [39]: 107% | viability, T/C [40]: 106% | viability, T/C [41]: 95.6% | viability, T/C [42]: 107% | viability, T/C [43]: 109% | viability, T/C [44]: 103% | viability, T/C [45]: 100% | viability, T/C [46]: 99.8% | viability, T/C [47]: 113% | viability, T/C [48]: 96.5% | viability, T/C [49]: 103% | viability, T/C [50]: 106% | viability, T/C [51]: 103% | viability, T/C [52]: 102% | viability, T/C [53]: 115% | viability, T/C [54]: 110% | viability, T/C [55]: 95.9% | viability, T/C [56]: 101% | viability, T/C [57]: 117% | viability, T/C [58]: 99.1% | viability, T/C [59]: 105% | viability, T/C [60]: 107% | viability, T/C [61]: 105% | viability, T/C [62]: 94.2% | viability, T/C [63]: 91.3% | viability, T/C [64]: 85.3% | viability, T/C [65]: 96.5% | viability, T/C [66]: 87.1% | viability, T/C [67]: 78.6% | viability, T/C [68]: 87.7% | viability, T/C [69]: 76.8% | viability, T/C [70]: 75.8% | viability, T/C [71]: 88.8% | viability, T/C [72]: 79.5%

Cc1nc(N2CCC3(CC2)COC(C)C3N)c(CO)nc1Sc1ccnc(N)c1Cl (stereo not drawn) + CNC(C)C(=O)NC1CN(S(=O)(=O)c2cccc(S(=O)(=O)N3CCC4CCC(C(=O)NC(c5ccccc5)c5ccccc5)N4C(=O)C(NC(=O)C(C)NC)C3)c2)CCC2CCC(C(=O)NC(c3ccccc3)c3ccccc3)N2C1=O
IC50 (second compound 0.00316 µM): > 3 µM | IC50 (second compound 0.01 µM): > 3 µM | IC50 (second compound 0.0316 µM): > 3 µM | IC50 (second compound 0.1 µM): > 3 µM | IC50 (second compound 0.316 µM): > 3 µM | IC50 (second compound 1 µM): 2.27 µM | viability, T/C [37]: 98.2% | viability, T/C [38]: 91.5% | viability, T/C [39]: 89.7% | viability, T/C [40]: 94% | viability, T/C [41]: 95.4% | viability, T/C [42]: 71.5% | viability, T/C [43]: 98.4% | viability, T/C [44]: 104% | viability, T/C [45]: 95.3% | viability, T/C [46]: 83% | viability, T/C [47]: 87.3% | viability, T/C [48]: 73.3% | viability, T/C [49]: 104% | viability, T/C [50]: 98.8% | viability, T/C [51]: 89.4% | viability, T/C [52]: 97.2% | viability, T/C [53]: 75.8% | viability, T/C [54]: 69.5% | viability, T/C [55]: 93.7% | viability, T/C [56]: 96.7% | viability, T/C [57]: 95.5% | viability, T/C [58]: 84.2% | viability, T/C [59]: 81.3% | viability, T/C [60]: 64.8% | viability, T/C [61]: 94.4% | viability, T/C [62]: 88.1% | viability, T/C [63]: 79% | viability, T/C [64]: 72.1% | viability, T/C [65]: 67% | viability, T/C [66]: 59.9% | viability, T/C [67]: 72.9% | viability, T/C [68]: 76.8% | viability, T/C [69]: 69.3% | viability, T/C [70]: 62.9% | viability, T/C [71]: 66.6% | viability, T/C [72]: 45%
